Source: patent publication US10420764B2, “Pharmaceutical formulation of N-[5-[2-(3,5-dimethoxyphenyl)ethyl]-2H-pyrazol-3-YL]-4-[(3R,5S)-3 ,5-dimethylpiperazin-1-YL] benzamide” (AstraZeneca AB, priority 2012, dated 2019)
Like-named read-outs stand apart in the source and are kept apart here.

Assay: Solubility of Formula (I) in simulated gastric and fasted simulated intestinal fluid
Assay type: physicochemical
Text: Furthermore, we have observed that the compound of Formula (I) may form a viscous material at low pH, which has the effect of reducing the rate at which the drag dissolves. In order to achieve an acceptable rate and extent of dissolution across the physiological pH range, the earlier clinical formulation was manufactured using conditions designed to give a fine granule which, when compressed into tablet form would disperse rapidly upon administration. While this approach did result in an improvement in dissolution performance, ‘filming’ problems were experienced during manufacture. In addition, it was observed that the use of conventional lubricants such as magnesium stearate and sodium stearyl fumarate led to chemical degradation including impurity formation and/or complexation.

solubility (fasted simulated intestinal fluid, pH 6.5, fassif, read-out: solubility in fasted simulated intestinal fluid): ~250 µg/mL
solubility (simulated gastric fluid, pH 1.2, simulated gastric fluid, read-out: solubility in simulated gastric fluid): ~5000 µg/mL
Compound: COc1cc(CCc2cc(NC(=O)c3ccc(N4C[C@@H](C)N[C@@H](C)C4)cc3)n[nH]2)cc(OC)c1 [Formula (I), N-[5-[2-(3,5-dimethoxyphenyl)ethyl]-2H-pyrazol-3-yl]-4-[(3R,5S)-3,5-dimethylpiperazin-1-yl]benzamide]
